{"source": "patent US9958439B2", "about": "“Carbohydrate detection” (RICHTER LIFE SCIENCE DEVELOPMENT AB, priority 2012, dated 2018)", "key": {"[1]": {"procedure,_shortened": "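3 μM of each LCO probe was added to serial two-fold carbohydrate dilutions in water (10–0.039 or 5–0.019 mg/ml). Excitation spectra were scanned 300–500 nm with emission at 545 nm, in triplicate. Detection was defined as a reproducible shift in λmax and/or RFU versus negative control, with linear regression of RFU against concentration.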"}, "[2]": {"conditions": "for RFU change (Correlation analysis): probe-specific excitation λ, emission 545 nm", "procedure,_shortened": "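LCO probes at 3 μM mixed with serial two-fold dilutions of carbohydrate in dH2O (10–0.039 or 5–0.019 mg/ml, depending on carbohydrate), in triplicate. Excitation scanned 300–500 nm or fixed per probe (λmax or lowest background), emission at 545 nm. Detection taken as reproducible λmax/RFU shift vs no-carbohydrate control; RFU regressed linearly on concentration.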"}, "[3]": {"conditions": "for RFU change (Correlation analysis): probe-specific excitation λ, emission 545 nm; for carbohydrate can be detected and/or differentiated by the LCO: conclusion from change in signal magnitude and/or shift in λmax; for Gradient Parameters (gradient of regression line) / Linear relationship / Quality of Gradient: linear regression", "procedure,_shortened": "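LCO probes at 3 μM mixed with serial twofold carbohydrate dilutions in dH2O (10–0.039 or 5–0.019 mg/ml, depending on carbohydrate). Excitation scanned 300–500 nm, emission read at 545 nm; detection defined as reproducible shift in λmax and/or RFU relative to negative control, with linear regression of RFU against concentration.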"}, "[4]": {"procedure,_shortened": "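LCO probes at 3 μM mixed with serial two-fold carbohydrate dilutions in water (10–0.039 or 5–0.019 mg/ml), run in triplicate. Excitation scanned 300–500 nm with emission at 545 nm; detection based on reproducible λmax or RFU shift against the no-carbohydrate control, with linear regression of RFU on concentration.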", "remark": "listed apart in the source"}, "[5]": {"procedure,_shortened": "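LCO probes (3 μM) were added to serial two-fold dilutions of carbohydrate suspensions in dH2O, with excitation scanned 300–500 nm and emission at 545 nm. Detection was a reproducible λmax and/or RFU change versus no-carbohydrate control. RFU was regressed linearly against concentration at the λmax or the lowest-background excitation.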", "remark": "listed apart in the source"}, "[6]": {"conditions": "for RFU change (Correlation analysis) / RFU change (Signal deviation with increasing [Carbohydrate]) / λmax change: 3 μM probe; for RFU change (Correlation analysis): probe-specific excitation λ, emission 545 nm; for RFU change (Signal deviation with increasing [Carbohydrate]) / λmax change: spectral analysis, Excitation 300-500, Emission 545; for carbohydrate can be detected and/or differentiated by the LCO: conclusion from change in signal magnitude and/or shift in λmax; for Gradient Parameters (gradient of regression line) / Linear relationship / Quality of Gradient: linear regression", "procedure,_shortened": "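Each LCO probe at 3 μM was added to two-fold serial dilutions of carbohydrate in dH2O (10–0.039 mg/ml for β-1,3-glucan, cellulose, chitin; 5–0.019 mg/ml for the others), run in triplicate. Excitation spectra were scanned 300–500 nm with emission at 545 nm. Detection was a reproducible λmax and/or RFU shift versus negative control, with linear regression of RFU against concentration.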"}, "[7]": {"conditions": "Chondroitin Sulfate A 5-0.019 mg/ml, 3 μM probe, spectral analysis, Excitation 300-500, Emission 545"}, "[8]": {"conditions": "Chondroitin Sulfate A concentration vs RFU, linear regression"}, "[9]": {"conditions": "Cellulobiose 5-0.019 mg/ml, 3 μM probe, spectral analysis, Excitation 300-500, Emission 545"}, "[10]": {"conditions": "amylose concentration vs RFU, linear regression"}, "[11]": {"conditions": "cellulobiose concentration vs RFU, linear regression"}, "[12]": {"conditions": "Glycogen 5-0.019 mg/ml, 3 μM probe, spectral analysis, Excitation 300-500, Emission 545"}, "[13]": {"conditions": "glucose concentration vs RFU, linear regression"}, "[14]": {"conditions": "Sodium alginate 5-0.019 mg/ml, 3 μM probe, spectral analysis, Excitation 300-500, Emission 545"}, "[15]": {"conditions": "sodium alginate concentration vs RFU, linear regression"}, "[16]": {"conditions": "β-1,3-glucan concentration vs RFU"}}, "note": "Where two headings read alike, the source gives them in different places.", "data": [{"smiles": "Cl.Cl.c1csc(-c2cc(CCn3ccnc3)c(-c3ccc(-c4sc(-c5cccs5)cc4CCn4ccnc4)s3)s2)c1", "note": "[pHTIm, penta Hydrogen Thiophene Imidazole]", "values": [{"measurement": "RFU change (Correlation analysis)", "setting": "[1]; Chondroitin Sulfate A 5-0.019 mg/ml, 3 μM probe, probe-specific excitation λ, emission 545 nm", "value": "Increases"}, {"measurement": "RFU change (Signal deviation with increasing [Carbohydrate])", "setting": "[1]; [7]", "value": "Increases"}, {"measurement": "λmax change", "setting": "[1]; [7]", "value": "Redshift"}, {"measurement": "Gradient Parameters (gradient of regression line)", "setting": "[1]; [8]", "value": "1177 ± 203.6"}, {"measurement": "Linear relationship", "setting": "[1]; [8]", "value": "Significant"}, {"measurement": "Quality of Gradient", "setting": "[1]; [8]", "value": "Positive"}, {"measurement": "carbohydrate can be detected and/or differentiated by the LCO", "setting": "[1]; Chondroitin sulfate A, conclusion from change in signal magnitude and/or shift in λmax", "value": "can be detected and/or differentiated"}, {"measurement": "Sensitivity", "setting": "[1]; to Chondroitin Sulfate A", "value": "Yes"}, {"measurement": "RFU change (Correlation analysis)", "setting": "[2]; Amylose 5-0.019 mg/ml, 3 μM probe", "value": "Decreases"}, {"measurement": "RFU change (Signal deviation with increasing [Carbohydrate])", "setting": "[2]; Amylose 5-0.019 mg/ml, 3 μM probe, spectral analysis, Excitation 300-500, Emission 545", "value": "Decreases"}, {"measurement": "carbohydrate can be detected and/or differentiated by the LCO", "setting": "[2]; Amylose, conclusion from change in signal magnitude and/or shift in λmax", "value": "can be detected and/or differentiated"}, {"measurement": "RFU change (Correlation analysis)", "setting": "[2]; Cellulobiose 5-0.019 mg/ml, 3 μM probe", "value": "Unclear"}, {"measurement": "RFU change (Signal deviation with increasing [Carbohydrate])", "setting": "[2]; [9]", "value": "Increases"}, {"measurement": "λmax change", "setting": "[2]; [9]", "value": "No change"}, {"measurement": "Gradient Parameters (gradient of regression line)", "setting": "[2]; [10]", "value": "−655 ± 110"}, {"measurement": "Linear relationship", "setting": "[2]; [10]", "value": "Significant"}, {"measurement": "Quality of Gradient", "setting": "[2]; [10]", "value": "Negative"}, {"measurement": "Gradient Parameters (gradient of regression line)", "setting": "[2]; [11]", "value": "75.1 ± 61.5"}, {"measurement": "Quality of Gradient", "setting": "[2]; [11]", "value": "Horizontal"}, {"measurement": "Sensitivity", "setting": "[2]; to amylose", "value": "Yes"}, {"measurement": "Sensitivity", "setting": "[2]; to cellulobiose", "value": "No"}, {"measurement": "RFU change (Correlation analysis)", "setting": "[3]; Glycogen 5-0.019 mg/ml, 3 μM probe", "value": "Increases"}, {"measurement": "RFU change (Signal deviation with increasing [Carbohydrate])", "setting": "[3]; [12]", "value": "Increases"}, {"measurement": "λmax change", "setting": "[3]; [12]", "value": "Redshift"}, {"measurement": "carbohydrate can be detected and/or differentiated by the LCO", "setting": "[3]; Glycogen", "value": "can be detected and/or differentiated"}, {"measurement": "RFU change (Correlation analysis)", "setting": "[3]; Heparin 5-0.019 mg/ml, 3 μM probe", "value": "Increases"}, {"measurement": "RFU change (Signal deviation with increasing [Carbohydrate])", "setting": "[3]; Heparin 5-0.019 mg/ml, 3 μM probe, spectral analysis, Excitation 300-500, Emission 545", "value": "Unclear"}, {"measurement": "carbohydrate can be detected and/or differentiated by the LCO", "setting": "[3]; Heparin", "value": "can be detected and/or differentiated"}, {"measurement": "Gradient Parameters (gradient of regression line)", "setting": "[3]; glycogen concentration vs RFU", "value": "835.8 ± 26.6"}, {"measurement": "Linear relationship", "setting": "[3]; glycogen concentration vs RFU", "value": "Significant"}, {"measurement": "Quality of Gradient", "setting": "[3]; glycogen concentration vs RFU", "value": "Positive"}, {"measurement": "Gradient Parameters (gradient of regression line)", "setting": "[3]; heparin concentration vs RFU", "value": "96.3 ± 36.8"}, {"measurement": "Linear relationship", "setting": "[3]; heparin concentration vs RFU", "value": "Significant"}, {"measurement": "Quality of Gradient", "setting": "[3]; heparin concentration vs RFU", "value": "Positive"}, {"measurement": "Sensitivity", "setting": "[3]; to glycogen", "value": "Yes"}, {"measurement": "Sensitivity", "setting": "[3]; to heparin", "value": "Yes"}, {"measurement": "RFU change (Correlation analysis)", "setting": "[4]; Glucose 5-0.019 mg/ml, 3 μM probe, probe-specific excitation λ, emission 545 nm", "value": "Unclear"}, {"measurement": "RFU change (Signal deviation with increasing [Carbohydrate])", "setting": "[4]; Glucose 5-0.019 mg/ml, 3 μM probe, spectral analysis, Excitation 300-500, Emission 545", "value": "Unclear"}, {"measurement": "Gradient Parameters (gradient of regression line)", "setting": "[4]; [13]", "value": "10.9 ± 25.5"}, {"measurement": "Quality of Gradient", "setting": "[4]; [13]", "value": "Horizontal"}, {"measurement": "Sensitivity", "setting": "[4]; to glucose", "value": "No"}, {"measurement": "RFU change (Correlation analysis)", "setting": "[5]; Sodium alginate 5-0.019 mg/ml, 3 μM probe, probe-specific excitation λ, emission 545 nm", "value": "Increases"}, {"measurement": "RFU change (Signal deviation with increasing [Carbohydrate])", "setting": "[5]; [14]", "value": "Increases"}, {"measurement": "λmax change", "setting": "[5]; [14]", "value": "Redshift"}, {"measurement": "carbohydrate can be detected and/or differentiated by the LCO", "setting": "[5]; Sodium alginate, conclusion from change in signal magnitude and/or shift in λmax", "value": "can be detected and/or differentiated"}, {"measurement": "Gradient Parameters (gradient of regression line)", "setting": "[5]; [15]", "value": "266 ± 29.2"}, {"measurement": "Linear relationship", "setting": "[5]; [15]", "value": "Significant"}, {"measurement": "Quality of Gradient", "setting": "[5]; [15]", "value": "Positive"}, {"measurement": "Sensitivity", "setting": "[5]; to sodium alginate", "value": "Yes"}, {"measurement": "RFU change (Correlation analysis)", "setting": "[6]; Cellulose 10-[…]", "value": "Increase"}, {"measurement": "RFU change (Signal deviation with increasing [Carbohydrate])", "setting": "[6]; Cellulose 10-[…]", "value": "Increase"}, {"measurement": "λmax change", "setting": "[6]; Cellulose 10-[…]", "value": "Redshift"}, {"measurement": "carbohydrate can be detected and/or differentiated by the LCO", "setting": "[6]; Cellulose", "value": "can be detected and/or differentiated"}, {"measurement": "RFU change (Correlation analysis)", "setting": "[6]; Chitin 10-[…]", "value": "Decreases"}, {"measurement": "RFU change (Signal deviation with increasing [Carbohydrate])", "setting": "[6]; Chitin 10-[…]", "value": "Decrease"}, {"measurement": "λmax change", "setting": "[6]; Chitin 10-[…]", "value": "Redshift"}, {"measurement": "carbohydrate can be detected and/or differentiated by the LCO", "setting": "[6]; Chitin", "value": "can be detected and/or differentiated"}, {"measurement": "Gradient Parameters (gradient of regression line)", "setting": "[6]; cellulose concentration vs RFU", "value": "3063 ± 564.3"}, {"measurement": "Linear relationship", "setting": "[6]; cellulose concentration vs RFU", "value": "Significant"}, {"measurement": "Quality of Gradient", "setting": "[6]; cellulose concentration vs RFU", "value": "Positive"}, {"measurement": "Gradient Parameters (gradient of regression line)", "setting": "[6]; chitin concentration vs RFU", "value": "−383.6 ± 71.4"}, {"measurement": "Linear relationship", "setting": "[6]; chitin concentration vs RFU", "value": "Significant"}, {"measurement": "Quality of Gradient", "setting": "[6]; chitin concentration vs RFU", "value": "Negative"}, {"measurement": "Sensitivity", "setting": "[6]; to cellulose", "value": "Yes"}, {"measurement": "Sensitivity", "setting": "[6]; to chitin", "value": "Yes"}, {"measurement": "Sensitivity", "setting": "[6]; to β-1,3-glucan", "value": "No"}, {"measurement": "RFU change (Correlation analysis)", "setting": "[6]; β-1,3-glucan 10-[…]", "value": "Decrease"}, {"measurement": "RFU change (Signal deviation with increasing [Carbohydrate])", "setting": "[6]; β-1,3-glucan 10-[…]", "value": "Decrease"}, {"measurement": "λmax change", "setting": "[6]; β-1,3-glucan 10-[…]", "value": "Redshift"}, {"measurement": "Gradient Parameters (gradient of regression line)", "setting": "[6]; [16]", "value": "−177.1 ± 89.6"}, {"measurement": "Quality of Gradient", "setting": "[6]; [16]", "value": "Horizontal"}]}]}
